Data as given in ChEMBL document CHEMBL3400061, “Structure-activity relationships of IKM-159: Diverted synthesis and biological evaluation of a series of C5-oxy analogs” (Bioorg Med Chem Lett, 2015).
Activity calls are given as the source filed them. No cut-off for these calls is given here.

What was measured:
Type in all cases: functional, organism-based
Mus musculus [1] = test: Suppression of voluntary movements in ddY mouse at 100 ug, icv
Mus musculus [2] = test: Induction of loss of body flaccidness in ddY mouse at 100 ug, icv
Mus musculus [3] = test: Induction of loss of body motion in ddY mouse at 100 ug, icv
Mus musculus [4] = test: Effect on behavior in ddY mouse at 100 ug, icv

Compound	Activity (Mus musculus [4])	other results
O=C(O)C[C@@]12O[C@H]3C=CCO[C@H]3[C@@H]1C(=O)N[C@H]2C(=O)O	–	Activity (Mus musculus [1]): Active
O=C(O)C[C@@]12O[C@H]3C=CCN[C@H]3[C@@H]1C(=O)N[C@H]2C(=O)O	–	Activity (Mus musculus [2]): Active; Activity (Mus musculus [3]): Active
C=C[C@@H]1O[C@@]2(CC(=O)O)[C@H](C(=O)O)NC(=O)[C@H]2[C@@H]1O	inactive	–
O=C(O)C[C@@]12O[C@H]3C=CC(=O)O[C@H]3[C@@H]1C(=O)N[C@H]2C(=O)O	inactive	–
O=C(O)C[C@@]12O[C@H]3CC(=O)O[C@H]3[C@@H]1C(=O)N[C@H]2C(=O)O	inactive	–
